Test results published in patent US20170050957A1, “4-AMINO-6-(HETEROCYCLIC)PICOLINATES AND 6-AMINO-2-(HETEROCYCLIC)PYRIMIDINE-4-CARBOXYLATES AND THEIR USE AS HERBICIDES” (Dow AgroSciences LLC, priority 2013, published 2017).
Like-named read-outs stand apart in the source and are kept apart here.

How the values were obtained:
[1] = system: Key Grass and Sedge Weeds as well as Grass Crops; test: Post-emergent Test II herbicidal activity (Table 16); format: in vivo; conditions: post-emergence, 336 h; for pest or weed control at 35 g/ha: 35 g ai/ha; for pest or weed control at 70 g/ha: 70 g ai/ha; for pest or weed control at 140 g/ha: 140 g ai/ha
Method in brief: (§1)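 Greenhouse-grown seedlings at first/second true leaf receive a track spray at 187 L/ha, using a highest rate plus two-fold serial dilutions down to 1/16×. Watering is by subirrigation to avoid wash-off. Percent injury (0-100) is judged by eye at 14 d against untreated plants.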

[2] = system: Key Broadleaf Weed and Crop Species; test: Post-emergent Test II herbicidal activity (Table 15); format: in vivo; conditions: post-emergence, 336 h, 14 d; for pest or weed control at 35 g/ha: 35 g ai/ha; for pest or weed control at 70 g/ha: 70 g ai/ha; for pest or weed control at 140 g/ha: 140 g ai/ha
Method in brief: as §1

[3] = Cyperus esculentus, yellow nutsedge (Cyperus esculentus), 14 d, read-out: Visual Growth Reduction (%) 14 Days After Application, CYPES
[4] = Echinochloa crus-galli, barnyardgrass (Echinochloa crus-galli), 14 d, read-out: Visual Growth Reduction (%) 14 Days After Application, ECHCG
[5] = Oryza sativa, rice (Oryza sativa), 14 d, read-out: Visual Growth Reduction (%) 14 Days After Application, ORYSA
[6] = Setaria faberi, giant foxtail (Setaria faberi), 14 d, read-out: Visual Growth Reduction (%) 14 Days After Application, SETFA
[7] = Triticum aestivum, wheat, spring (Triticum aestivum), 14 d, read-out: Visual Growth Reduction (%) 14 Days After Application, TRZAS
[8] = Zea mays, maize, corn (Zea mays), 14 d, read-out: Visual Growth Reduction (%) 14 Days After Application, ZEAMX
[9] = Abutilon theophrasti, velvetleaf (Abutilon theophrasti), read-out: Visual Growth Reduction (%) 14 Days After Application, ABUTH
[10] = Amaranthus retroflexus, redroot pigweed (Amaranthus retroflexus), read-out: Visual Growth Reduction (%) 14 Days After Application, AMARE
[11] = Brassica napus, oilseed rape, canola (Brassica napus), read-out: Visual Growth Reduction (%) 14 Days After Application, BRSNN
[12] = Chenopodium album, lambsquarters (Chenopodium album), read-out: Visual Growth Reduction (%) 14 Days After Application, CHEAL
[13] = Euphorbia heterophylla, wild poinsettia (Euphorbia heterophylla), read-out: Visual Growth Reduction (%) 14 Days After Application, EPHHL
[14] = Helianthus annuus, sunflower (Helianthus annuus), read-out: Visual Growth Reduction (%) 14 Days After Application, HELAN
[15] = Cyperus esculentus, yellow nutsedge (Cyperus esculentus), 14 days after application, read-out: Visual Growth Reduction (%) 14 Days After Application CYPES
[16] = Echinochloa crus-galli, barnyardgrass (Echinochloa crus-galli), 14 days after application, read-out: Visual Growth Reduction (%) 14 Days After Application ECHCG
[17] = Oryza sativa, rice (Oryza sativa), 14 days after application, read-out: Visual Growth Reduction (%) 14 Days After Application ORYSA
[18] = Setaria faberi, giant foxtail (Setaria faberi), 14 days after application, read-out: Visual Growth Reduction (%) 14 Days After Application SETFA
[19] = Triticum aestivum, wheat, spring (Triticum aestivum), 14 days after application, read-out: Visual Growth Reduction (%) 14 Days After Application TRZAS
[20] = Zea mays, maize, corn (Zea mays), 14 days after application, read-out: Visual Growth Reduction (%) 14 Days After Application ZEAMX

Row | SMILES | pest or weed control at 35 g/ha [2, 9] [%] | pest or weed control at 70 g/ha [2, 9] [%] | pest or weed control at 140 g/ha [2, 9] [%] | pest or weed control at 35 g/ha [2, 10] [%] | pest or weed control at 70 g/ha [2, 10] [%] | pest or weed control at 140 g/ha [2, 10] [%] | pest or weed control at 35 g/ha [2, 11] [%] | pest or weed control at 70 g/ha [2, 11] [%] | pest or weed control at 140 g/ha [2, 11] [%] | pest or weed control at 35 g/ha [2, 12] [%] | pest or weed control at 70 g/ha [2, 12] [%] | pest or weed control at 140 g/ha [2, 12] [%] | pest or weed control at 35 g/ha [2, 13] [%] | pest or weed control at 70 g/ha [2, 13] [%] | pest or weed control at 140 g/ha [2, 13] [%] | pest or weed control at 35 g/ha [2, 14] [%] | pest or weed control at 70 g/ha [2, 14] [%] | pest or weed control at 140 g/ha [2, 14] [%] | melting point [°C] | further results
1 | COc1c(C(=O)O)nc(-c2ccc3cc[nH]c3c2F)c(F)c1N [Compound 1.17] | 45 to 59 | 45 to 59 | 60 to 74 | 95 to 100 | 95 to 100 | 95 to 100 | 95 to 100 | 95 to 100 | 95 to 100 | 95 to 100 | 95 to 100 | 95 to 100 | 95 to 100 | 95 to 100 | 95 to 100 | 95 to 100 | 95 to 100 | 95 to 100 | 133 to 140 | pest or weed control at 35 g/ha [1, 3]: 45 to 59%; pest or weed control at 70 g/ha [1, 3]: 45 to 59%; pest or weed control at 140 g/ha [1, 3]: 45 to 59%; pest or weed control at 35 g/ha [1, 4]: 85 to 94%; pest or weed control at 70 g/ha [1, 4]: 85 to 94%; pest or weed control at 140 g/ha [1, 4]: 85 to 94%; pest or weed control at 35 g/ha [1, 5]: 0 to 29%; pest or weed control at 70 g/ha [1, 5]: 0 to 29%; pest or weed control at 140 g/ha [1, 5]: 0 to 29%; pest or weed control at 35 g/ha [1, 6]: 75 to 84%; pest or weed control at 70 g/ha [1, 6]: 85 to 94%; pest or weed control at 140 g/ha [1, 6]: 85 to 94%; pest or weed control at 35 g/ha [1, 7]: 60 to 74%; pest or weed control at 70 g/ha [1, 7]: 60 to 74%; pest or weed control at 140 g/ha [1, 7]: 60 to 74%; pest or weed control at 35 g/ha [1, 8]: 60 to 74%; pest or weed control at 70 g/ha [1, 8]: 75 to 84%; pest or weed control at 140 g/ha [1, 8]: 75 to 84%
2 | Cc1c(-c2ccc3ccsc3c2)nc(C(=O)O)c(Cl)c1N [Compound 3.19] | 0 to 29 | 0 to 29 | 60 to 74 | 60 to 74 | 95 to 100 | 75 to 84 | 0 to 29 | 0 to 29 | 0 to 29 | 60 to 74 | 60 to 74 | 75 to 84 | 0 to 29 | 0 to 29 | 0 to 29 | 85 to 94 | 85 to 94 | 85 to 94 | 157 to 162 | pest or weed control at 35 g/ha [1, 15]: 0 to 29%; pest or weed control at 70 g/ha [1, 15]: 0 to 29%; pest or weed control at 140 g/ha [1, 15]: 0 to 29%; pest or weed control at 35 g/ha [1, 16]: 0 to 29%; pest or weed control at 70 g/ha [1, 16]: 0 to 29%; pest or weed control at 140 g/ha [1, 16]: 0 to 29%; pest or weed control at 35 g/ha [1, 17]: 0 to 29%; pest or weed control at 70 g/ha [1, 17]: 0 to 29%; pest or weed control at 140 g/ha [1, 17]: 0 to 29%; pest or weed control at 35 g/ha [1, 18]: 0 to 29%; pest or weed control at 70 g/ha [1, 18]: 0 to 29%; pest or weed control at 140 g/ha [1, 18]: 0 to 29%; pest or weed control at 35 g/ha [1, 19]: 0 to 29%; pest or weed control at 70 g/ha [1, 19]: 0 to 29%; pest or weed control at 140 g/ha [1, 19]: 0 to 29%; pest or weed control at 35 g/ha [1, 20]: 0 to 29%; pest or weed control at 70 g/ha [1, 20]: 0 to 29%; pest or weed control at 140 g/ha [1, 20]: 0 to 29%
